Laboratory results taken from ChEMBL document CHEMBL1151324, “Cytotoxic geranyl stilbenes from Macaranga schweinfurthii” (J Nat Prod, 1998).
Converted amounts (≈) assume the structure as drawn.

How the values were obtained:
A549 [1] = assay: Cytotoxicity against human A549 cells after 48 hrs; format: functional, cell-based; conditions: A549, 48 h
SF-295 [2] = assay: Cytotoxicity against human SF295 cells after 1 hr; format: functional, cell-based; conditions: SF-295, 1 h
SF-295 [3] = assay: Cytotoxicity against human SF295 cells after 1 hr compound washout; format: functional, cell-based; conditions: SF-295, 1 h
SF-295 [4] = assay: Cytotoxicity against human SF295 cells after 48 hrs; format: functional, cell-based; conditions: SF-295, 48 h
CCRF-CEM = assay: Cytotoxicity against human CCRF-CEM cells; format: functional
HL-60 = assay: Cytotoxicity against human HL60 cells; format: functional
MOLT-4 = assay: Cytotoxicity against human MOLT4 cells; format: functional
SR = assay: Cytotoxicity against human SR cells; format: functional
A549 [5] = assay: Cytotoxicity against human A549 cells; format: functional
EKVX = assay: Cytotoxicity against human EKVX cells; format: functional
HOP-62 = assay: Cytotoxicity against human HOP62 cells; format: functional
HOP-92 = assay: Cytotoxicity against human HOP92 cells; format: functional
NCI-H226 = assay: Cytotoxicity against human NCI-H226 cells; format: functional
NCI-H23 = assay: Cytotoxicity against human NCI-H23 cells; format: functional
NCI-H322M = assay: Cytotoxicity against human NCI-H322M cells; format: functional
NCI-H460 = assay: Cytotoxicity against human NCI-H460 cells; format: functional
NCI-H522 = assay: Cytotoxicity against human NCI-H522 cells; format: functional
COLO 205 = assay: Cytotoxicity against human COLO205 cells; format: functional
HCC 2998 = assay: Cytotoxicity against human HCC2998 cells; format: functional
HCT-116 = assay: Cytotoxicity against human HCT116 cells; format: functional
HCT-15 = assay: Cytotoxicity against human HCT15 cells; format: functional
KM12 = assay: Cytotoxicity against human KM12 cells; format: functional
SW-620 = assay: Cytotoxicity against human SW620 cells; format: functional
SF-295 [6] = assay: Cytotoxicity against human SF295 cells; format: functional
SNB-19 = assay: Cytotoxicity against human SNB19 cells; format: functional
SNB-75 = assay: Cytotoxicity against human SNB75 cells; format: functional
U-251 = assay: Cytotoxicity against human U251 cells; format: functional
LOX IMVI = assay: Cytotoxicity against human LOXIMVI cells; format: functional
M14 = assay: Cytotoxicity against human M14 cells; format: functional
SK-MEL-2 = assay: Cytotoxicity against human SK-MEL-2 cells; format: functional
SK-MEL-5 = assay: Cytotoxicity against human SK-MEL-5 cells; format: functional
UACC-257 = assay: Cytotoxicity against human UACC257 cells; format: functional
UACC-62 = assay: Cytotoxicity against human UACC62 cells; format: functional
IGROV-1 = assay: Cytotoxicity against human IGROV1 cells; format: functional
OVCAR-4 = assay: Cytotoxicity against human OVCAR4 cells; format: functional
SK-OV-3 = assay: Cytotoxicity against human SKOV3 cells; format: functional
ACHN = assay: Cytotoxicity against human ACHN cells; format: functional
SN12C = assay: Cytotoxicity against human SN12C cells; format: functional
TK-10 = assay: Cytotoxicity against human TK10 cells; format: functional
UO-31 = assay: Cytotoxicity against human UO31 cells; format: functional
PC-3 = assay: Cytotoxicity against human PC3 cells; format: functional
DU-145 = assay: Cytotoxicity against human DU145 cells; format: functional
MDA-MB-231 = assay: Cytotoxicity against human MDA-MB-231 cells; format: functional
MDA-MB-435 = assay: Cytotoxicity against human MDA-MB-435 cells; format: functional
MDA-N = assay: Cytotoxicity against human MDA-N cells; format: functional
BT-549 = assay: Cytotoxicity against human BT549 cells; format: functional
[7] = read-out: pLC50 (the source's name) (converted)

## CC(C)=CCC/C(C)=C/Cc1c(O)cc(/C=C/c2cc(O)c3c(c2)C[C@@H]2C(C)(C)[C@H](O)[C@H](O)C[C@@]2(C)O3)cc1O [SCHWEINFURTHIN A]
A549 [1]
  IC50: 3.7 µg/mL (≈ 6.74 µM)
SF-295 [2]
  IC50: 47 µg/mL (≈ 85.7 µM)
SF-295 [3]
  IC50: 0.06 µg/mL (≈ 0.109 µM)
SF-295 [4]
  IC50: < 0.01 ng/mL
CCRF-CEM
  GI50: 0.01 µM
  LC50: 74.1 µM
CCRF-CEM; read-out: pTGI (converted)
  TGI: 2.09 µM
HL-60
  GI50: 0.0158 µM
  LC50: 38.9 µM
HL-60; read-out: pTGI (converted)
  TGI: 0.129 µM
MOLT-4
  GI50: 0.0151 µM
  LC50: 57.5 µM
MOLT-4; read-out: pTGI (converted)
  TGI: 1.29 µM
SR
  GI50: 0.0708 µM
  LC50: 74.1 µM
SR; read-out: pTGI (converted)
  TGI: 18.2 µM
A549 [5]
  GI50: 0.141 µM
  LC50 (concentration killing 50% of cells): 40.7 µM
A549 [5]; read-out: pTGI (converted)
  TGI: 14.1 µM
EKVX
  GI50: 0.158 µM
  LC50: 43.7 µM
EKVX; read-out: pTGI (converted)
  TGI: 15.1 µM
HOP-62
  GI50: 0.12 µM
  LC50: 40.7 µM
HOP-62; read-out: pTGI (converted)
  TGI: 15.1 µM
HOP-92
  GI50: 2.57 µM
  LC50: 46.8 µM
HOP-92; read-out: pTGI (converted)
  TGI: 15.1 µM
NCI-H226
  GI50: 4.47 µM
  LC50: 70.8 µM
NCI-H226; read-out: pTGI (converted)
  TGI: 15.8 µM
NCI-H23
  GI50: 3.24 µM
  LC50: 51.3 µM
NCI-H23; read-out: pTGI (converted)
  TGI: 18.2 µM
NCI-H322M
  GI50: 6.17 µM
  LC50: 47.9 µM
NCI-H322M; read-out: pTGI (converted)
  TGI: 20.9 µM
NCI-H460
  GI50: 0.0129 µM
  LC50: 38.9 µM
NCI-H460; read-out: pTGI (converted)
  TGI: 12 µM
NCI-H522
  GI50: 2.57 µM
  LC50: 26.9 µM
NCI-H522; read-out: pTGI (converted)
  TGI: 10 µM
COLO 205
  GI50: 1.1 µM
  LC50: 7.08 µM
COLO 205; read-out: pTGI (converted)
  TGI: 2.82 µM
HCC 2998
  GI50: 0.501 µM
  LC50: 33.1 µM
HCC 2998; read-out: pTGI (converted)
  TGI: 9.77 µM
HCT-116
  GI50: 0.0525 µM
  LC50: 40.7 µM
HCT-116; read-out: pTGI (converted)
  TGI: 14.1 µM
HCT-15
  GI50: 1.82 µM
  LC50: 25.7 µM
HCT-15; read-out: pTGI (converted)
  TGI: 6.03 µM
KM12
  GI50: 1.51 µM
  LC50: 30.2 µM
KM12; read-out: pTGI (converted)
  TGI: 14.1 µM
SW-620
  GI50: 0.257 µM
  LC50: 44.7 µM
SW-620; read-out: pTGI (converted)
  TGI: 18.2 µM
SF-295 [6]
  LC50: 17 µM
SF-295 [6]; read-out: GI50
  GI50: 0.011 µM
SF-295 [6]; read-out: TGI
  TGI: 0.052 µM
SF-295 [6]; read-out: pGI50 (converted)
  GI50: 0.011 µM
SF-295 [6]; read-out: pTGI (converted)
  TGI: 0.0525 µM
SNB-19
  GI50: 0.257 µM
  LC50: 49 µM
SNB-19; read-out: pTGI (converted)
  TGI: 20 µM
SNB-75
  GI50: 0.0151 µM
  LC50: 50.1 µM
SNB-75; read-out: pTGI (converted)
  TGI: 0.38 µM
U-251
  GI50: 0.0251 µM
  LC50: 49 µM
U-251; read-out: pTGI (converted)
  TGI: 22.9 µM
LOX IMVI
  GI50: 0.038 µM
  LC50: 38.9 µM
LOX IMVI; read-out: pTGI (converted)
  TGI: 17 µM
M14
  GI50: 0.0158 µM
  LC50: 2.69 µM
M14; read-out: pTGI (converted)
  TGI: 0.324 µM
SK-MEL-2
  GI50: 1.7 µM
  LC50: 42.7 µM
SK-MEL-2; read-out: pTGI (converted)
  TGI: 12.9 µM
SK-MEL-5
  GI50: 0.0912 µM
  LC50: 12 µM
SK-MEL-5; read-out: pTGI (converted)
  TGI: 2.82 µM
UACC-257
  GI50: 4.27 µM
  LC50: 43.7 µM
UACC-257; read-out: pTGI (converted)
  TGI: 18.2 µM
UACC-62
  GI50: 0.11 µM
  LC50: 6.31 µM
UACC-62; read-out: pTGI (converted)
  TGI: 1.82 µM
IGROV-1
  GI50: 1.29 µM
  LC50: 34.7 µM
IGROV-1; read-out: pTGI (converted)
  TGI: 11 µM
OVCAR-4
  GI50: 4.27 µM
  LC50: 81.3 µM
OVCAR-4; read-out: pTGI (converted)
  TGI: 24 µM
SK-OV-3
  GI50: 2.69 µM
  LC50: 39.8 µM
SK-OV-3; read-out: pTGI (converted)
  TGI: 15.8 µM
ACHN
  GI50: 2.09 µM
  LC50: 39.8 µM
ACHN; read-out: pTGI (converted)
  TGI: 15.8 µM
SN12C
  GI50: 6.92 µM
  LC50: 61.7 µM
SN12C; read-out: pTGI (converted)
  TGI: 25.1 µM
TK-10
  GI50: 2.57 µM
  LC50: 41.7 µM
TK-10; read-out: pTGI (converted)
  TGI: 17 µM
UO-31
  GI50: 0.01 µM
  LC50: 3.63 µM
UO-31; read-out: pTGI (converted)
  TGI: 0.209 µM
PC-3
  GI50: 0.17 µM
PC-3; [7]
  CC50: 36.3 µM
PC-3; read-out: pTGI (converted)
  TGI: 12.9 µM
DU-145
  GI50: 1.2 µM
DU-145; [7]
  CC50: 53.7 µM
DU-145; read-out: pTGI (converted)
  TGI: 15.1 µM
MDA-MB-231
  GI50: 4.17 µM
MDA-MB-231; [7]
  CC50: 70.8 µM
MDA-MB-231; read-out: pTGI (converted)
  TGI: 25.1 µM
MDA-MB-435
  GI50: 3.8 µM
MDA-MB-435; [7]
  CC50: 74.1 µM
MDA-MB-435; read-out: pTGI (converted)
  TGI: 33.1 µM
MDA-N
  GI50: 2.82 µM
MDA-N; [7]
  CC50: 61.7 µM
MDA-N; read-out: pTGI (converted)
  TGI: 25.7 µM
BT-549
  GI50: 12.9 µM
BT-549; [7]
  CC50: 74.1 µM
BT-549; read-out: pTGI (converted)
  TGI: 32.4 µM
